The subject of this test is gentamicin-resistant P. aeruginosa, Pa383-ΔrahU::GM. The experiment in a line: Biofilm biomass, aqueous or dried onto 96-well plates. The test is classed as cell-based, Pseudomonas aeruginosa. The settings on record: 32 h incubation. The procedure: An equimolar (10 μM per antisense-PNA) cocktail of the antisense-PNAs rsmA 0, amrZ 0, and rpoS 0 with 50% methanol (MeOH) (total volume: 60 μL) was dried onto a 96-well clear flat bottom polystyrene tissue culture-treated microplate in a Fisherbrand™ Isotemp™ Digital Dry Bath/Block Heater at 37° C. 60 μL of 100 μg/mL gentamicin was also dried onto wells. Gentamicin-resistant P. aeruginosa, Pa383-ΔrahU::GM was subcultured as described above (Rao, J. et al., 2011)
Biofilms were stained with 175 μL 0.1% crystal violet (CV), rinsed with sterile water until the water ran clear, solubilized in 100 μL of 33% glacial acetic acid (GAA), and absorbance was measured using a spectrophotometer at 590 nm (Wilson, C. et al., 2017).

As for gentamicin, the average biofilm biomass result (aq, vs untreated in M9+ media) was “no statistically significant difference” and the average biofilm biomass entry (dried in MeOH, vs dried MeOH control wells) was “no statistically significant difference”.
